Source: patent US20100323902A1, “Live-cell signals of pathogen intrusion and methods thereof” (priority 2007, published 2010)
Like-named read-outs stand apart in the source and are kept apart here.

Assays:
adenovirus [1] = experiment: RWG biosensor DMR assay: modulation of the adenovirus-induced response in HeLa cells; type: cell-based; settings: HeLa cells pretreated 1 h with modulator (10 microM latrunculin A, 10 microM cytochalasin B, 40 microM DIPC), then adenovirus MOI 6,000; assay time about 1 hour
Text: Reagents—Latrunculin A and cytochalasin B were purchased from Sigma Chemical Co. (St. Louis, Mo.). Cell permeable dynamin inhibitor peptide control (DIPC) was obtained from Tocris Chemical Co. (St. Louis, Mo.). Adenoviral particles (Ad-CMV-eGFP) were purchased from Vector Biolabs (Philadelphia, Pa.). Cell-culture-ready Corning® Epic™ 96well biosensor microplates were obtained from Corning Inc (Corning, N.Y.). HeLa cell line was obtained from Americal Type Cell Culture.
Cell Culture—HeLa cells were grown in Earle minimum Essential medium (EMEM) supplemented with 10% fetal bovine serum (FBS), 4.5 g/liter glucose, 2 mM glutamine, and antibiotics. ˜10^4 HeLa cells suspended in 200 μl the appropriate medium containing 10% FBS were placed in each well of a 96well biosensor microplate, and were cultured at 37° C. under air/5% CO2 until about 95% confluency was reached.
Optical biosensor measurements—Corning® Epic® angular interrogation system with transverse magnetic or p-polarized TM0 mode (as described in, for example, U.S. Patent Publication No. US-2004-0263841, U.S. patent application Ser. No. 11/019,439, filed Dec. 21, 2004, and U.S. Patent Publication No. US-2005-0236554.) was used. […] Afterwards, the sensor microplate containing cells was placed into the optical system, and the cell responses were recorded before and after addition of a solution. […]

adenovirus [2] = settings: cited from earlier work
A431 cells = experiment: Marker-induced DMR signal in A431 cells (RWG biosensor); type: cell-based, Human
Protocol: Cell Culture—Human epidermoid carcinoma A431 cells were obtained from American Type Cell Culture. For A431 cell culturing, A431 cells were grown in Dulbecco's modified Eagle's medium (DMEM) supplemented with 10% fetal bovine serum (FBS), 4.5 g/liter glucose, 2 mM glutamine, and antibiotics. about 1-2×10^4 cells at passage 3 to 5 suspended in 50 μl the growth medium were placed in each well. After cell seeding, the cells were cultured at 37° C. under air/5% CO2 until about 95% confluency was reached (about 2 days). Afterwards, the serum medium was replaced with the serum-free DMEM medium, and at the same time adenovirus particles were introduced. The resultant cells were subject to continuous culturing for overnight. […]
The doses of virus (multiplicity of infection (MOI)) used in this experiment were comprised of from 0 to about MOI 6,000. At 20 hrs post infection (PI) the A431 cells were washed with HBSS and real time kinetics of the cell responses were recorded before and after stimulation with 32 nM EGF (targeting EGFR and MAPK pathway and cell adhesion pathway), 25 nM epinephrine (targeting Gs pathway and cell adhesion pathway), 32 nM of bradykinin (targeting Gq and Gs pathway), 25 microM of SFFLR-amide or 25 microM of SLIGKV-amide (both targeting Gq and G12/13 pathways) using the Epic® system and illustrated in FIGS. 5 to 7. […]

FAK = experiment: Mercator Phosphoarray assay in non-infected A431 cells, FAK; type: cell-based, Human
Protocol: (§1) Thus, A431 cells were infected overnight in serum-free medium with various doses of Adenovirus-GFP (MOI of about 1, c, about 10, b or about 500, a). As a negative control A431 cells were treated only with serum-free medium (mock control bar “d”). At 20 hrs post infection, the infected and non-infected A431 cells were washed and then stimulated with 32 nM EGF for 30 min (FIG. 8A), 25 nM epinephrine for 1 hr (FIG. 8B), or serum-free medium for 1 hr at ambient room temperature (column e in FIGS. 8A and 8B, cell non infected and untreated). Cells extracts were then prepared according to the recommended protocol and analyzed using Mercator™ phosphoarray assay. […] The letter labeled bars (a-e) represent: a=EFG/−adenovirus MOI 500, b=EFG/adenovirus MOI 10, c=EFG/adenovirus MOI 1, d=EFG-mock, and e=untreated cells. […] The letter labeled bars (a-e) are as above for FIG. 8A.

Akt = settings: 25 nM epinephrine for 1 hr vs untreated cells
Protocol: as §1

Paxillin = experiment: Mercator Phosphoarray assay in non-infected A431 cells, Paxillin; type: cell-based, Human
Protocol: as §1

EGFR = experiment: Mercator Phosphoarray assay in non-infected A431 cells, EGFR; type: cell-based, Human
Protocol: as §1

[3] = 25 nM epinephrine for 1 hr vs untreated cells
[4] = 32 nM EGF for 30 min vs untreated cells

## C=C1[C@@H](C)[C@H]2[C@H](Cc3ccccc3)NC(=O)[C@]23OC(=O)/C=C/[C@H](O)CCC[C@@H](C)C/C=C/[C@H]3[C@@H]1O [cytochalasin B]
Adenovirus [1]
  adenovirus-induced P-DMR signal: clearly inhibited the P-DMR signal
Adenovirus [2]
  trafficking of adenovirus in cells: block the trafficking of adenovirus

## CNC[C@H](O)c1ccc(O)c(O)c1 [epinephrine, Epinephrine]
A431 cells
  DMR signal upon stimulation: dose-dependent DMR signal
FAK; [3]
  phosphorylation level of FAK: do not seem to be altered
Akt
  phosphorylation level of Akt: do not seem to be altered
Paxillin; [3]
  phosphorylation level of paxillin: decreases
EGFR; [3]
  phosphorylation level of EGFR: do not seem to be altered

## C/C1=C/C(=O)O[C@@H]2C[C@@H](CC[C@H](C)/C=C\C=C\CC1)O[C@@](O)([C@@H]1CSC(=O)N1)C2 [latrunculin A, Latrunculin A]
Adenovirus [1]
  adenovirus-induced P-DMR signal: clearly inhibited the P-DMR signal

## CC[C@]1(O)C[C@@H]2CN(CCc3c([nH]c4ccccc34)[C@@](C(=O)OC)(c3cc4c(cc3OC)N(C)[C@H]3[C@@](O)(C(=O)OC)[C@H](OC(C)=O)[C@]5(CC)C=CCN6CC[C@]43[C@@H]65)C2)C1 [vinblastin]
Adenovirus [2]
  trafficking of adenovirus in cells: block the trafficking of adenovirus

## EGF: natural ligand of epidermal growth factor receptor (NSDSECPLSHDGYCLHDGVCMYIEALDKYACNCVVGYIGERCQYRDLKWWELR; Epidermal growth factor; UniProt P01133 971-1023, looked up)
A431 cells; A431 cells, quiescent for EGF, bradykinin, ATP and thrombin
  DMR signal upon stimulation: DMR signal with three distinct and sequential phases
FAK; [4]
  phosphorylation level of FAK: increased significantly
Paxillin; [4]
  phosphorylation level of paxillin: only mildly increased
EGFR; [4]
  phosphorylation level of EGFR: increased significantly
